Experimental data taken from PubChem BioAssay AID272 (DTP/NCI, 2004).
Values joined by “and” are separate entries in the source; they are usually repeats but may differ in a detail not shown here. Identical values can stand only once. Inconclusive results are not listed.

System: Lewis lung carcinoma i.m., BDF1 mice, T/C %
Experiment: NCI In Vivo Anticancer Drug Screen. Data for tumor model Lewis Lung Carcinoma (intramuscular) in B6D2F1 (BDF1) mice
Summary of the method: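 Value is the ratio of a treated-group measurement (T) to the matching vehicle-control measurement (C), using either survival or tumour size in mice bearing transplanted tumours.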

[1] = endpoint: median survival time, dose: 25.0 mg/kg/injection, schedule: Q01DX011 (ip), vehicle: saline, higher = longer survival
[2] = endpoint: median survival time, dose: 100.0 mg/kg/injection, schedule: Q01DX011 (ip), vehicle: saline, higher = longer survival

C(=C\c1ccccc1)/C[P+](c1ccccc1)(c1ccccc1)c1ccccc1 was tested, and the T/C (endpoint: mean tumor weight (est.), dose: 0.6 mg/kg/injection, schedule: Q01DX011 (ip), vehicle: saline, higher = larger tumour) was 101 % of control, the T/C (endpoint: mean tumor weight (est.), dose: 1.25 mg/kg/injection, schedule: Q01DX011 (ip), vehicle: saline, higher = larger tumour) was 100 % of control and the T/C (endpoint: mean tumor weight (est.), dose: 2.5 mg/kg/injection, schedule: Q01DX011 (ip), vehicle: saline, higher = larger tumour) was 105 % of control. The T/C (endpoint: mean tumor weight (est.), dose: 5.0 mg/kg/injection, schedule: Q01DX011 (ip), vehicle: saline, higher = larger tumour) was 93 % of control, the T/C (endpoint: median survival time, dose: 0.6 mg/kg/injection, schedule: Q01DX011 (ip), vehicle: saline, higher = longer survival) was 98 % of control and the T/C (endpoint: median survival time, dose: 1.25 mg/kg/injection, schedule: Q01DX011 (ip), vehicle: saline, higher = longer survival) was 107 % of control. For the same compound, the T/C (endpoint: median survival time, dose: 2.5 mg/kg/injection, schedule: Q01DX011 (ip), vehicle: saline, higher = longer survival) was 98 % of control and the T/C (endpoint: median survival time, dose: 5.0 mg/kg/injection, schedule: Q01DX011 (ip), vehicle: saline, higher = longer survival) was 100 % of control.
CN(N=O)C(=O)N[C@@H](C=O)[C@@H](O)[C@H](O)[C@H](O)CO was tested, and the T/C (endpoint: mean tumor weight, dose: 12.5 mg/kg/injection, schedule: Q01DX011 (ip), vehicle: saline, higher = larger tumour) was 66 % of control, the T/C (endpoint: mean tumor weight, dose: 25.0 mg/kg/injection, schedule: Q01DX011 (ip), vehicle: saline, higher = larger tumour) was 95 % of control and the T/C (endpoint: mean tumor weight, dose: 100.0 mg/kg/injection, schedule: Q01DX011 (ip), vehicle: saline, higher = larger tumour) was 61 % of control. The T/C (endpoint: mean tumor weight, dose: 200.0 mg/kg/injection, schedule: Q01DX011 (ip), vehicle: saline, higher = larger tumour) was 74 % of control, the T/C (endpoint: median survival time, dose: 12.5 mg/kg/injection, schedule: Q01DX011 (ip), vehicle: saline, higher = longer survival) was 109 % of control and the T/C [1] was 95 % of control. The T/C (endpoint: median survival time, dose: 50.0 mg/kg/injection, schedule: Q01DX011 (ip), vehicle: saline, higher = longer survival) was 90 % of control and 100 % of control, the T/C [2] was 92 % of control and the T/C (endpoint: median survival time, dose: 200.0 mg/kg/injection, schedule: Q01DX011 (ip), vehicle: saline, higher = longer survival) was 121 % of control.
With CC(=O)NNC(=O)c1ccccn1 the T/C (endpoint: median survival time, dose: 8.0 mg/kg/injection, schedule: Q01DX Z (ip), vehicle: other, higher = longer survival) was 86 % of control, the T/C (endpoint: median survival time, dose: 16.0 mg/kg/injection, schedule: Q01DX Z (ip), vehicle: other, higher = longer survival) was 86 % of control and the T/C (endpoint: median survival time, dose: 32.0 mg/kg/injection, schedule: Q01DX Z (ip), vehicle: other, higher = longer survival) was 86 % of control. For the same compound, the T/C (endpoint: median survival time, dose: 64.0 mg/kg/injection, schedule: Q01DX Z (ip), vehicle: other, higher = longer survival) was 91 % of control.
With OCC1OC(n2cnc3c(Cl)ncnc32)C(O)C1O (stereo not given) the T/C (endpoint: mean tumor weight (est.), dose: 25.0 mg/kg/injection, schedule: Q01DX011 (ip), vehicle: saline, higher = larger tumour) was 121 % of control, the T/C (endpoint: mean tumor weight (est.), dose: 50.0 mg/kg/injection, schedule: Q01DX011 (ip), vehicle: saline, higher = larger tumour) was 91 % of control and the T/C (endpoint: mean tumor weight (est.), dose: 100.0 mg/kg/injection, schedule: Q01DX011 (ip), vehicle: saline, higher = larger tumour) was 117 % of control. The T/C (endpoint: mean tumor weight (est.), dose: 400.0 mg/kg/injection, schedule: Q01DX011 (ip), vehicle: saline, higher = larger tumour) was 94 % of control, the T/C (endpoint: mean tumor weight, dose: 25.0 mg/kg/injection, schedule: Q01DX011 (ip), vehicle: Klucel (hydroxypropylcellulose) (HPC), higher = larger tumour) was 44 % of control and the T/C (endpoint: mean tumor weight, dose: 200.0 mg/kg/injection, schedule: Q01DX011 (ip), vehicle: Klucel (hydroxypropylcellulose) (HPC), higher = larger tumour) was 88 % of control. The T/C [1] was 100 % of control, the T/C (endpoint: median survival time, dose: 25.0 mg/kg/injection, schedule: Q01DX012 (ip), vehicle: Klucel (hydroxypropylcellulose) (HPC), higher = longer survival) was 95 % of control and the T/C [2] was 98 % of control. For the same compound, the T/C (endpoint: median survival time, dose: 200.0 mg/kg/injection, schedule: Q01DX012 (ip), vehicle: Klucel (hydroxypropylcellulose) (HPC), higher = longer survival) was 104 % of control and the T/C (endpoint: median survival time, dose: 400.0 mg/kg/injection, schedule: Q01DX011 (ip), vehicle: saline, higher = longer survival) was 92 % of control.
For CC(C)NCC(O)COc1cccc2ccccc12 (stereo not given), the T/C (endpoint: median survival time, dose: 8.0 mg/kg/injection, schedule: Q01DX009 (ip), vehicle: Klucel (hydroxypropylcellulose) (HPC), higher = longer survival) was 121 % of control, the T/C (endpoint: median survival time, dose: 16.0 mg/kg/injection, schedule: Q01DX009 (ip), vehicle: Klucel (hydroxypropylcellulose) (HPC), higher = longer survival) was 121 % of control and the T/C (endpoint: median survival time, dose: 32.0 mg/kg/injection, schedule: Q01DX009 (ip), vehicle: Klucel (hydroxypropylcellulose) (HPC), higher = longer survival) was 90 % of control. For the same compound, the T/C (endpoint: median survival time, dose: 64.0 mg/kg/injection, schedule: Q01DX009 (ip), vehicle: Klucel (hydroxypropylcellulose) (HPC), higher = longer survival) was 110 % of control.
For C[N+](C)(C)c1cc2c(nn1)Nc1ccccc1S2, the T/C (endpoint: mean tumor weight (est.), dose: 1.06 mg/kg/injection, schedule: Q01DX011 (ip), vehicle: saline, higher = larger tumour) was 83 % of control, the T/C (endpoint: mean tumor weight (est.), dose: 2.12 mg/kg/injection, schedule: Q01DX011 (ip), vehicle: saline, higher = larger tumour) was 88 % of control and the T/C (endpoint: mean tumor weight (est.), dose: 4.25 mg/kg/injection, schedule: Q01DX011 (ip), vehicle: saline, higher = larger tumour) was 69 % of control. The T/C (endpoint: mean tumor weight (est.), dose: 8.5 mg/kg/injection, schedule: Q01DX011 (ip), vehicle: saline, higher = larger tumour) was 110 % of control, the T/C (endpoint: median survival time, dose: 1.06 mg/kg/injection, schedule: Q01DX011 (ip), vehicle: saline, higher = longer survival) was 103 % of control and the T/C (endpoint: median survival time, dose: 2.12 mg/kg/injection, schedule: Q01DX011 (ip), vehicle: saline, higher = longer survival) was 100 % of control. For the same compound, the T/C (endpoint: median survival time, dose: 4.25 mg/kg/injection, schedule: Q01DX011 (ip), vehicle: saline, higher = longer survival) was 105 % of control and the T/C (endpoint: median survival time, dose: 8.5 mg/kg/injection, schedule: Q01DX011 (ip), vehicle: saline, higher = longer survival) was 96 % of control.
CC(=O)[C@@]1(O)CC[C@H]2[C@@H]3C[C@H](C)C4=CC(=O)C=C[C@]4(C)[C@@]3(F)[C@@H](O)C[C@@]21C was tested, and the T/C (endpoint: mean tumor weight, dose: 12.5 mg/kg/injection, schedule: Q01DX011 (ip), vehicle: steriod suspending solution, higher = larger tumour) was 40 % of control, the T/C (endpoint: mean tumor weight, dose: 25.0 mg/kg/injection, schedule: Q01DX011 (ip), vehicle: steriod suspending solution, higher = larger tumour) was 26 % of control and the T/C (endpoint: mean tumor weight, dose: 50.0 mg/kg/injection, schedule: Q01DX011 (ip), vehicle: steriod suspending solution, higher = larger tumour) was 19 % of control. For the same compound, the T/C (endpoint: median survival time, dose: 12.5 mg/kg/injection, schedule: Q01DX011 (ip), vehicle: steriod suspending solution, higher = longer survival) was 107 % of control and the T/C (endpoint: median survival time, dose: 25.0 mg/kg/injection, schedule: Q01DX011 (ip), vehicle: steriod suspending solution, higher = longer survival) was 94 % of control and 112 % of control.
[N-]=[N+]=CC(=O)CCC(N)C(=O)O (stereo not given) was tested, and the T/C (endpoint: mean tumor weight, dose: 7.5 micrograms/kg/injection, schedule: Q01DX011 (ip), vehicle: saline, higher = larger tumour) was 107 % of control, the T/C (endpoint: mean tumor weight, dose: 15.0 micrograms/kg/injection, schedule: Q01DX011 (ip), vehicle: saline, higher = larger tumour) was 77 % of control and the T/C (endpoint: mean tumor weight, dose: 30.0 micrograms/kg/injection, schedule: Q01DX011 (ip), vehicle: saline, higher = larger tumour) was 75 % of control. For the same compound, the T/C (endpoint: mean tumor weight, dose: 60.0 micrograms/kg/injection, schedule: Q01DX011 (ip), vehicle: saline, higher = larger tumour) was 102 % of control, the T/C (endpoint: median survival time, dose: 7.5 micrograms/kg/injection, schedule: Q01DX011 (ip), vehicle: saline, higher = longer survival) was 114 % of control and the T/C (endpoint: median survival time, dose: 30.0 micrograms/kg/injection, schedule: Q01DX011 (ip), vehicle: saline, higher = longer survival) was 90 % of control. For the same compound, the T/C (endpoint: median survival time, dose: 60.0 micrograms/kg/injection, schedule: Q01DX011 (ip), vehicle: saline, higher = longer survival) was 90 % of control.
COc1cccc2c1C(=O)c1c(O)c3c(c(O)c1C2=O)C[C@@](O)(C(C)=O)C[C@@H]3OC1CC(N)C(O)C(C)O1 (stereo not given in full) was tested, and the T/C (endpoint: median survival time, dose: 0.25 mg/kg/injection, schedule: Q01DX011 (ip), vehicle: water, higher = longer survival) was 93 % of control, the T/C (endpoint: median survival time, dose: 0.5 mg/kg/injection, schedule: Q01DX011 (ip), vehicle: water, higher = longer survival) was 106 % of control and 117 % of control and the T/C (endpoint: median survival time, dose: 1.0 mg/kg/injection, schedule: Q01DX011 (ip), vehicle: water, higher = longer survival) was 107 % of control.
In the case of O=c1cnn(C2OC(CO)C(O)C2O)c(=O)[nH]1 (stereo not given), the T/C (endpoint: median survival time, dose: 75.0 mg/kg/injection, schedule: Q01DX009 (ip), vehicle: Klucel (hydroxypropylcellulose) (HPC), higher = longer survival) is reported as 112 % of control, the T/C (endpoint: median survival time, dose: 150.0 mg/kg/injection, schedule: Q01DX009 (ip), vehicle: Klucel (hydroxypropylcellulose) (HPC), higher = longer survival) is reported as 120 % of control and the T/C (endpoint: median survival time, dose: 300.0 mg/kg/injection, schedule: Q01DX009 (ip), vehicle: Klucel (hydroxypropylcellulose) (HPC), higher = longer survival) is reported as 121 % of control. For the same compound, the T/C (endpoint: median survival time, dose: 600.0 mg/kg/injection, schedule: Q01DX009 (ip), vehicle: Klucel (hydroxypropylcellulose) (HPC), higher = longer survival) was 119 % of control.
O=[N+]([O-])c1cc(S(=O)(=O)OCC2CO2)ccc1Cl (stereo not given) was tested, and the T/C (endpoint: mean tumor weight (est.), dose: 6.25 mg/kg/injection, schedule: Q01DX011 (ip), vehicle: saline with Tween-80, higher = larger tumour) was 66 % of control, the T/C (endpoint: mean tumor weight (est.), dose: 12.5 mg/kg/injection, schedule: Q01DX011 (ip), vehicle: saline with Tween-80, higher = larger tumour) was 70 % of control and the T/C (endpoint: mean tumor weight (est.), dose: 25.0 mg/kg/injection, schedule: Q01DX011 (ip), vehicle: saline with Tween-80, higher = larger tumour) was 47 % of control. The T/C (endpoint: median survival time, dose: 6.25 mg/kg/injection, schedule: Q01DX011 (ip), vehicle: saline with Tween-80, higher = longer survival) was 100 % of control, the T/C (endpoint: median survival time, dose: 12.5 mg/kg/injection, schedule: Q01DX011 (ip), vehicle: saline with Tween-80, higher = longer survival) was 90 % of control and the T/C (endpoint: median survival time, dose: 25.0 mg/kg/injection, schedule: Q01DX011 (ip), vehicle: saline with Tween-80, higher = longer survival) was 101 % of control.
For CCN(CC)Cc1cc(Nc2c3ccccc3nc3cc(Cl)ccc23)ccc1O, the T/C (endpoint: mean tumor weight (est.), dose: 35.0 mg/kg/injection, schedule: Q01DX011 (ip), vehicle: saline, higher = larger tumour) was 79 % of control.
